This passage reports Activity results from ChEMBL document CHEMBL1157297, “Daphmanidins E and F, alkaloids from Daphniphyllum teijsmannii” (2006).

The test system of experiment [1] is Aorta. Put plainly: Vasorelaxant activity against norepinephrine-induced contraction in Wistar rat thoracic aorta at 100 uM. It is filed as functional. Also noted: scale not given: the % may be the effect or the level left.
For experiment [2], the system named is Aorta. The experiment can be described thus: Vasorelaxant activity against norepinephrine-induced contraction in Wistar rat thoracic aorta at 10 uM. The arrangement: scale not given: the % may be the effect or the level left. It is filed as functional.

`COC(=O)C1=C2CCC3=C2[C@@]2(C1)C1=NC[C@@H](C)[C@]14CC[C@@]2(COC(C)=O)[C@H](CC3)[C@H]4O` [DAPHMANIDIN E] gave an Activity in the experiment on Aorta [1] of 34.9%.

In turn, `COC(=O)[C@@H]1C[C@]23C4=NC[C@@H](C)[C@]45CC[C@@]2(COC(C)=O)[C@H](CCC2=C3[C@@H]1CC2)[C@H]5O` [DAPHMANIDIN A] had an Activity with Aorta [2] of 37.5%.

Consider `COC(=O)C1=C2CC[C@]34CC[C@@H]5[C@@H](O)[C@@]67CC[C@]5(COC(C)=O)[C@](C1)(C6=NC[C@H]7C)[C@]23O4` [DAPHMANIDIN F], for which the Activity in the experiment with Aorta [2] is recorded as 45.8%.
